“And” between values parts separate entries of the source, which are not always exact repeats. Equal entries are not always repeated.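 These data come from cells grown in 96-well plates and exposed to compound for 48 hours at five concentrations. GI50 marks 50% less growth. TGI denotes the concentration required for complete inhibition of growth.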 Some results are limits rather than exact numbers.

From PubChem BioAssay (NCI) come the findings set out here.

Some test systems named below: ACHN renal; HOP-62 NSCLC; KM12 colon; NCI-H226 lung; NCI-H522 lung; RXF 393 renal; SF-539 CNS; SN12C renal; UO-31 renal.
Holding throughout (assay): NCI tumour cell line growth inhibition, 48 h

Take `COc1ccc(-c2c(NC(=O)Nc3ccc(Cl)c(C(F)(F)F)c3)cnn2-c2ccc(S(N)(=O)=O)cc2)cc1`: the GI50 in the assay with ACHN renal is 3.97 µM; with HOP-62 NSCLC, 4.07 µM; with KM12 colon, 3.04 µM; in the assay with NCI-H226 lung, 3.23 µM; in the assay with NCI-H522 lung, 2980 nM; with RXF 393 renal it was 2.6 µM. Moreover, the GI50 in the assay with SF-539 CNS was 3.06 µM; in the assay on SN12C renal it was 3.58 µM; in the assay on UO-31 renal, 3.39 µM. Moreover, the TGI in the assay on ACHN renal was determined as 14.2 µM; in the assay with HOP-62 NSCLC it was 16.1 µM; with KM12 colon it was 11.6 µM; in the assay on NCI-H226 lung it was 14.6 µM; with NCI-H522 lung, 12.3 µM; in the assay on RXF 393 renal it was 9.83 µM. In addition, the TGI came out at 9.9 µM in the assay on SF-539 CNS, 13.1 µM in the assay on SN12C renal and 15.1 µM with UO-31 renal.
For `COc1ccc(NC(=O)c2ccc(C(F)(F)F)nc2Nc2ccc(Cl)cc2C)cc1Cl`, the GI50 was 5.36 µM in the assay with ACHN renal; 10.7 µM in the assay on HOP-62 NSCLC; 6.03 µM with KM12 colon; 2.99 µM in the assay with NCI-H226 lung; 3530 nM in the assay with NCI-H522 lung; 12.5 µM with RXF 393 renal. Moreover, the GI50 in the assay with SF-539 CNS is 9.01 µM; in the assay with SN12C renal, 3.65 µM; with UO-31 renal, 4.39 µM. The TGI stood at 18.6 µM in the assay with ACHN renal; 23.9 µM with HOP-62 NSCLC; 28 µM in the assay with KM12 colon; 14.4 µM with NCI-H226 lung; 15.4 µM in the assay with NCI-H522 lung; 26.8 µM in the assay on RXF 393 renal. Also, the TGI with SF-539 CNS was 23.5 µM; in the assay with SN12C renal it was 14 µM; in the assay on UO-31 renal, 17.8 µM.
Take `O=C1NN(C(=O)c2ccccc2)C(c2ccc(Cl)c(Cl)c2)=C/C1=C\c1ccccc1[N+](=O)[O-]`: the GI50 with ACHN renal was 3.09 µM; with HOP-62 NSCLC, 3.44 µM; with KM12 colon, 2.34 µM; in the assay on NCI-H226 lung, 1.44 µM; in the assay on NCI-H522 lung, 1240 nM; in the assay on RXF 393 renal it was 1.67 µM. The values for the GI50 with SF-539 CNS, in the assay on SN12C renal and in the assay on UO-31 renal were 2.47 µM, 2.4 µM and 0.735 µM, respectively. Besides, the TGI in the assay on ACHN renal was greater than 6.75 µM; with HOP-62 NSCLC, greater than 6.75 µM; in the assay on KM12 colon it was greater than 6.75 µM; in the assay on NCI-H226 lung it was greater than 6.75 µM; with NCI-H522 lung, 3.77 µM; with RXF 393 renal, 5.35 µM. Further, the TGI with SF-539 CNS is greater than 6.75 µM; in the assay on SN12C renal it was greater than 6.75 µM; with UO-31 renal it was 6.7 µM.
With `CC(C)(C)c1cc[n+](C[n+]2ccc(C(C)(C)C)cc2)cc1`, the TGI in the assay with ACHN renal, with HOP-62 NSCLC, in the assay on KM12 colon, in the assay on NCI-H226 lung, in the assay on NCI-H522 lung and in the assay on RXF 393 renal was greater than 100 µM throughout. Further, the TGI with SF-539 CNS, with SN12C renal and in the assay with UO-31 renal was greater than 100 µM each time.
Take `Oc1cccc2ccc(SSc3ccc4cccc(O)c4n3)nc12`: the TGI is 29.7 µM with ACHN renal; 39.9 µM in the assay on HOP-62 NSCLC; 29.5 µM in the assay with KM12 colon; greater than 100 µM with NCI-H226 lung; 38.2 µM with NCI-H522 lung; 30.8 µM in the assay on RXF 393 renal. In addition, the TGI turned out to be 37.5 µM in the assay with SF-539 CNS, 37 µM in the assay on SN12C renal and 83.9 µM in the assay with UO-31 renal.
For the compound `Oc1cccc2cccnc12`, the GI50 with ACHN renal was 5.98 µM and 23.1 µM and 6 µM; in the assay with HOP-62 NSCLC, 4.47 µM and 5.39 µM and 13.5 µM; with KM12 colon, 3.04 µM and 14 µM and 5.1 µM; in the assay on NCI-H226 lung it was 8.82 µM and 44.4 µM and 28.6 µM; in the assay with NCI-H522 lung it was 220 nM and 487 nM and 1920 nM; with RXF 393 renal it was 13.4 µM and 69.6 µM and 14.6 µM. Also, the GI50 in the assay on SF-539 CNS is 4.56 µM and 26.9 µM and 4.11 µM; with SN12C renal, 5.56 µM and 29.8 µM and 4.23 µM. For the same compound, the TGI with ACHN renal was greater than 100 µM; with HOP-62 NSCLC, greater than 100 µM; in the assay on KM12 colon, greater than 100 µM; in the assay with NCI-H226 lung, 37.4 µM and > 100 µM and > 84 µM; in the assay with RXF 393 renal, greater than 100 µM; in the assay with SF-539 CNS, 54.1 µM and 81.1 µM and > 100 µM. The TGI in the assay on SN12C renal and with UO-31 renal was greater than 100 µM in each case.
For the compound `O=C(N/N=C/c1ccc([N+](=O)[O-])cc1)c1ccccc1Nc1ccnc(C(F)(F)F)c1`, the GI50 with ACHN renal was 7.89 µM; with HOP-62 NSCLC it was 31.2 µM; in the assay with KM12 colon it was 2.75 µM; in the assay with NCI-H226 lung, 15.5 µM; with NCI-H522 lung it was 12500 nM; with RXF 393 renal it was 15.4 µM. The GI50 was 30.3 µM in the assay on SF-539 CNS, 26.3 µM with SN12C renal and 16.6 µM in the assay with UO-31 renal. For the same compound, the TGI with ACHN renal was found to be 73 µM; in the assay with HOP-62 NSCLC, 95.1 µM; in the assay on KM12 colon it was 55.4 µM; in the assay on NCI-H226 lung, 74.3 µM; in the assay with NCI-H522 lung it was 38.3 µM; in the assay with RXF 393 renal, 42.8 µM. Further, the TGI in the assay on SF-539 CNS was greater than 100 µM; with SN12C renal, greater than 100 µM; in the assay on UO-31 renal it was 59.6 µM.
For `COc1cccc(C2SC(C)C(=O)N2NC(=O)C(O)c2ccccc2)c1` (configuration not stated), the GI50 in the assay with ACHN renal is greater than 100 µM; in the assay on HOP-62 NSCLC, greater than 100 µM; in the assay with KM12 colon, greater than 100 µM; in the assay on NCI-H226 lung, greater than 100 µM; in the assay on NCI-H522 lung, greater than 100000 nM; in the assay on RXF 393 renal, greater than 100 µM. In addition, the GI50 with SF-539 CNS, in the assay on SN12C renal and with UO-31 renal was greater than 100 µM each time. The TGI with ACHN renal, in the assay on HOP-62 NSCLC, in the assay on KM12 colon, in the assay with NCI-H226 lung, with NCI-H522 lung and in the assay on RXF 393 renal was greater than 100 µM throughout. In addition, the TGI with SF-539 CNS, in the assay on SN12C renal and in the assay with UO-31 renal was greater than 100 µM in each case.
As for `N#Cc1ccc2[nH]cc(Cc3c[nH]c4ccc(C#N)cc34)c2c1`, the GI50 with ACHN renal was 12.2 µM; in the assay with HOP-62 NSCLC, 11.6 µM; in the assay with KM12 colon, 9.88 µM; in the assay on NCI-H226 lung it was 17.9 µM; in the assay with NCI-H522 lung it was 7450 nM; with RXF 393 renal it was 10.7 µM. Moreover, the GI50 in the assay with SF-539 CNS was 8.64 µM; with SN12C renal, 17 µM; in the assay on UO-31 renal, 8.64 µM. Moreover, the TGI was 35.5 µM in the assay with ACHN renal; 28.5 µM with HOP-62 NSCLC; 20.1 µM in the assay on KM12 colon; greater than 50 µM in the assay with NCI-H226 lung; 17.4 µM in the assay on NCI-H522 lung; 34.9 µM in the assay with RXF 393 renal. Besides, the TGI in the assay on SF-539 CNS is 16.9 µM; in the assay with SN12C renal it was greater than 50 µM; in the assay on UO-31 renal, 20.3 µM.
